Data: US20070275936A1, “Formulations and Treatment Methods” (priority 1998, published 2007)

How the values were obtained:
[1] = test system: HIV-1 viral RNA; assay: Human HIV clinical protocol: viral load (bDNA); type: in vivo; conditions: after three 5-day courses of intermittent dosing over 153 days
Protocol: Otherwise untreated patients with CD4 counts of ≧200/μL and HIV-1 viral RNA between 5,000 and 1,000,000 copies/mL (branched-DNA, version 3.0, Bayer, Tarrytown, N.Y.) provided informed consent and were enrolled into a Phase I/II dose-escalation study of the safety and efficacy of intramuscular injections of BrEA. The protocol was conducted in South Africa. In the first cohort, four patients received an initial injection of 1 mL (50 mg), followed by a safety and pharmocokinetic study for seven days, and then received five daily injections of 1 mL (50 mg). The second cohort of 8 patients was randomized in a 1:2 ratio to receive either 50 mg (1 mL) or 100 mg (2 mL) on the same schedule. […]
CD4 counts were assessed using a FACScount (BDIS), and viral loads were measured using the bDNA assay (Bayer). […]
Statistical analysis of changes in surface phenotypes, hematological, and viral parameters were performed by calculating the area under the curve (AUC) of the percentage difference from baselines (phenotype), percentage difference from the mean of screen and baseline values (hematology), or log10 change from the mean of screen and baseline values (plasma viral RNA) for individual patients. AUC were calculated using the actual number of days between analysis visits for each patient. […]

[2] = test system: HIV; assay: HIV RNA level by PCR in HIV/HCV infected patient dosed I.V. with BrEA; type: in vivo; conditions: predosing 5.2
Protocol: A patient infected with HIV and HCV was dosed I.V. with BrEA for 3 consecutive days using a formulation that contained 20 mg/mL BrEA in 45% w/v hydroxypropyl-β-cyclodextrin and saline. Four mL of the formulation (80 mg BrEA) was administered to the patient every 4 hours during the 3 day treatment period. The patient's predosing HCV level was 6.5 Log10 as measured by PCR and the HCV level was 6.2 Log10 on the first day of dosing, 5.5 Log10 on the 3rd day of dosing and 4.9 Log10 three days after the last dose was administered. HIV RNA levels as measured by PCR was 5.2 Log10 (predosing), 5.8 Log10 (first day), 5.9 Log10 (third day) and 5.4 Log10 (day 6). The NK cell counts (cells/mm^3) were 28, 41 and 38 at predosing, day 0 and day 3.

C[C@]12CC[C@H](O)C[C@@H]1CC[C@@H]1[C@@H]2CC[C@]2(C)C(=O)[C@H](Br)C[C@@H]12 [BrEA, 16α-bromo-3β-hydroxy-5α-androstane-17-one]
change in viral load [1]: no overall decrease in viral load | HIV RNA levels by PCR ([2]; day 6): 5.4 Log10 | HIV RNA levels by PCR ([2]; first day): 5.8 Log10 | HIV RNA levels by PCR ([2]; third day): 5.9 Log10
